Source: patent US12065430B2, “Indazole compound or salt thereof” (TAIHO PHARMACEUTICAL CO., LTD., priority 2018, dated 2024)

These molecules were tested against G12C K-Ras4B (1-169) (Homo sapiens (Human), UniProt P01116, G12C) (assay: Test of compounds on whether to bind to KRASG12C (LC-MS compound binding rate)). Conditions: final compound concentration of 2 μM, 1 μM protein, 25° C. for 2 hours.
Outline: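 K-Ras4B (1-169) WT and G12C (1 μM each, mixed) in 1×TBS, 0.1 mM TCEP incubated with compound (final 2 μM) 2 h at 25° C; quenched with 0.2% formic acid. Intact-protein LC-MS (ESI+, deconvoluted); binding rate = adduct signal/(adduct + unbound signal), giving selectivity over WT.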

Row | Compound | binding rate for G12C K-Ras4B (1-169)
1 | C=CC(=O)N1CC(NC(=O)c2c(Cl)nc(CNc3n[nH]c4cc(Cl)c(C(C)(C)C)cc34)n2CCOC)C1 [Example 90, N-(1-acryloylazetidin-3-yl)-2-(((5-(tert-butyl)-6-chloro-1H-indazol-3-yl)amino)methyl)-4-chloro-1-(2-methoxyethyl)-1H-imidazole-5-carboxamide] | A (a binding rate of 80% or more is rated “A,”)
2 | C=CC(=O)N1CC(NC(=O)c2c(Cl)nc(CNc3n[nH]c4cc(Cl)c(C(C)(C)C)cc34)n2[C@H]2CCN(C(C)C)C2)C1 [Example 116, (S)—N-(1-acryloylazetidin-3-yl)-2-(((5-(tert-butyl)-6-chloro-1H-indazol-3-yl)amino)methyl)-4-chloro-1-(1-isopropylpyrrolidin-3-yl)-1H-imidazole-5-carboxamide] | B (a binding rate of 60% or more and less than 80% is rated “B,”)
3 | C=CC(=O)N1CC(NC(=O)c2sc(CNc3n[nH]c4cc(Cl)c(C(C)(C)C)cc34)nc2C)C1 [Example 2, N-(1-acryloylazetidin-3-yl)-2-(((5-(tert-butyl)-6-chloro-1H-indazol-3-yl)amino)methyl)-4-methylthiazole-5-carboxamide] | B (a binding rate of 60% or more and less than 80% is rated “B,”)
4 | C=CC(=O)N1CCC(NC(=O)c2c(C)nc(CNc3n[nH]c4cc(Cl)c(C(C)(C)C)cc34)n2C)C1 (centres unmarked) [Example 48, N-(1-acryloylpyrrolidin-3-yl)-2-(((5-(tert-butyl)-6-chloro-1H-indazol-3-yl)amino)methyl)-1,4-dimethyl-1H-imidazole-5-carboxamide] | B (a binding rate of 60% or more and less than 80% is rated “B,”)
5 | C=CC(=O)N1CC(NC(=O)c2c(CC)nc(CNc3n[nH]c4cc(Cl)c(C(C)(C)C)cc34)n2C)C1 [Example 31, N-(1-acryloylazetidin-3-yl)-2-(((5-(tert-butyl)-6-chloro-1H-indazol-3-yl)amino)methyl)-4-ethyl-1-methyl-1H-imidazole-5-carboxamide] | D (a binding rate of 20% or more and less than 40% is rated “D,”)
6 | CC#CC(=O)N1CC(NC(=O)c2c(C)nc(CNc3n[nH]c4cc(Cl)c(C(C)(C)C)cc34)n2C(C)C)C1 [Example 82, N-(1-(buty-2-noyl)azetidin-3-yl)-2-(((5-(tert-butyl)-6-chloro-1H-indazol-3-yl)amino)methyl)-1-isopropyl-4-methyl-1H-imidazole-5-carboxamide] | D (a binding rate of 20% or more and less than 40% is rated “D,”)
7 | C=CC(=O)N1CC(NC(=O)c2c(C(F)F)nc(CNc3n[nH]c4cc(Cl)c(C(C)(C)C)cc34)n2C2CCN(C(C)=O)C2)C1 (centres unmarked) [Example 96, 1-(1-Acetylpyrrolidin-3-yl)-N-(1-acryloylazetidin-3-yl)-2-(((5-(tert-butyl)-6-chloro-1H-indazol-3-yl)amino)methyl)-4-(difluoromethyl)-1H-imidazole-5-carboxamide] | A (a binding rate of 80% or more is rated “A,”)
8 | C=CC(=O)N1CC(NC(=O)c2ccc(CNc3n[nH]c4cc(Cl)c(C(C)(C)C)cc34)o2)C1 [Reference Example 2, N-(1-acryloylazetidin-3-yl)-5-(((5-(tert-butyl)-6-chloro-1H-indazol-3-yl)amino)methyl)furan-2-carboxamide, reference compound] | E (a binding rate of less than 20% is rated “E.”)
9 | C=CC(=O)N1CC(NC(=O)c2c(C(F)(F)F)nc(CNc3n[nH]c4cc(Cl)c(C(C)(C)C)cc34)n2C(C)C)C1 [Example 32, N-(1-acryloylazetidin-3-yl)-2-(((5-(tert-butyl)-6-chloro-1H-indazol-3-yl)amino)methyl)-1-isopropyl-4-(trifluoromethyl)-1H-imidazole-5-carboxamide] | B (a binding rate of 60% or more and less than 80% is rated “B,”)
10 | C=CC(=O)N1CC(NC(=O)c2c(C)c(CNc3n[nH]c4cc(Cl)c(C(C)(C)C)cc34)nn2C)C1 [Example 10, N-(1-acryloylazetidin-3-yl)-3-(((5-(tert-butyl)-6-chloro-1H-indazol-3-yl)amino)methyl)-1,4-dimethyl-1H-pyrazole-5-carboxamide] | B (a binding rate of 60% or more and less than 80% is rated “B,”)
11 | C=CC(=O)N1CC(NC(=O)c2c(Cl)nc(CNc3n[nH]c4cc(Cl)c(C(C)(C)C)cc34)n2[C@@H]2C[C@@H](O)[C@@H](O)C2)C1 [Example 99] | A (a binding rate of 80% or more is rated “A,”)
12 | C=CC(=O)N1CC(NC(=O)c2c(I)nc(CNc3n[nH]c4cc(Cl)c(C(C)(C)C)cc34)n2C)C1 [Example 26, N-(1-acryloylazetidin-3-yl)-2-(((5-(tert-butyl)-6-chloro-1H-indazol-3-yl)amino)methyl)-4-iodo-1-methyl-1H-imidazole-5-carboxamide] | A (a binding rate of 80% or more is rated “A,”)
13 | C=CC(=O)N1CC(NC(=O)c2cnc(CNc3n[nH]c4cc(Cl)c(C)cc34)n2C)C1 [Example 37, N-(1-acryloylazetidin-3-yl)-2-(((6-chloro-5-methyl-1H-indazol-3-yl)amino)methyl)-1-methyl-1H-imidazole-5-carboxamide] | C (a binding rate of 40% or more and less than 60% is rated “C,”)
14 | C=CC(=O)N1CC(NC(=O)c2c(Cl)nc(CNc3n[nH]c4cc(Cl)c(C(C)(C)C)cc34)n2CC(C)C)C1 [Example 89, N-(1-acryloylazetidin-3-yl)-2-(((5-(tert-butyl)-6-chloro-1H-indazol-3-yl)amino)methyl)-4-chloro-1-isobutyl-1H-imidazole-5-carboxamide] | A (a binding rate of 80% or more is rated “A,”)
15 | C=CC(=O)N1CC(NC(=O)c2c(Cl)nc(CNc3n[nH]c4cc(Cl)c(C(C)(C)C)cc34)n2CC(F)F)C1 [Example 100, N-(1-acryloylazetidin-3-yl)-2-(((5-(tert-butyl)-6-chloro-1H-indazol-3-yl)amino)methyl)-4-chloro-1-(2,2-difluoroethyl)-1H-imidazole-5-carboxamide] | A (a binding rate of 80% or more is rated “A,”)
16 | C=CC(=O)N1CC(NC(=O)c2c(C)nc(CNc3n[nH]c4cc(C)c(C(C)(C)C)cc34)n2C)C1 [Example 41, N-(1-acryloylazetidin-3-yl)-2-(((5-(tert-butyl)-6-methyl-1H-indazol-3-yl)amino)methyl)-1,4-dimethyl-1H-imidazole-5-carboxamide] | A (a binding rate of 80% or more is rated “A,”)
17 | C=CC(=O)N1CC(NC(=O)c2c(Cl)nc(CNc3n[nH]c4cc(Cl)c(C5(C(F)(F)F)CC5)cc34)n2C(C)C)C1 [Example 44, N-(1-acryloylazetidin-3-yl)-4-chloro-2-(((6-chloro-5-(1-(trifluoromethyl)cyclopropyl)-1H-indazol-3-yl)amino)methyl)-1-isopropyl-1H-imidazole-5-carboxamide] | B (a binding rate of 60% or more and less than 80% is rated “B,”)
18 | C=CC(=O)N1CC(NC(=O)c2c(Cl)nc(CNc3n[nH]c4cc(Cl)c(C(C)(C)C)cc34)n2[C@H]2C[C@H](C)CC[C@H]2C(C)C)C1 [Example 111, N-(1-acryloylazetidin-3-yl)-2-(((5-(tert-butyl)-6-chloro-1H-indazol-3-yl)amino)methyl)-4-chloro-1-((1S,2S,5R)-2-isopropyl-5-methylcyclohexyl)-1H-imidazole-5-carboxamide] | B (a binding rate of 60% or more and less than 80% is rated “B,”)
19 | C=CC(=O)N1CCC(NC(=O)c2c(C)nc(CNc3n[nH]c4cc(Cl)c(C(C)(C)C)cc34)n2C)CC1 [Example 47, N-(1-acryloylpiperidin-4-yl)-2-(((5-(tert-butyl)-6-chloro-1H-indazol-3-yl)amino)methyl)-1,4-dimethyl-1H-imidazole-5-carboxamide] | C (a binding rate of 40% or more and less than 60% is rated “C,”)
20 | C=CC(=O)N1CC(NC(=O)c2cnc(CNc3n[nH]c4cc(Cl)c(Br)cc34)n2C)C1 [Reference Example 1, N-(1-acryloylazetidin-3-yl)-2-(((5-bromo-6-chloro-1H-indazol-3-yl)amino)methyl)-1-methyl-1H-imidazole-5-carboxamide, reference compound] | E (a binding rate of less than 20% is rated “E.”)
21 | C=CC(=O)N1CC(NC(=O)c2c(Cl)nc(CNc3n[nH]c4cc(Cl)c(C(C)(C)C)cc34)n2[C@@H]2CCN(C3CC3)C2)C1 [Example 120, (R)—N-(1-acryloylazetidin-3-yl)-2-(((5-(tert-butyl)-6-chloro-1H-indazol-3-yl)amino)methyl)-4-chloro-1-(1-cyclopropylpyrrolidin-3-yl)-1H-imidazole-5-carboxamide] | A (a binding rate of 80% or more is rated “A,”)
22 | C=CC(=O)N1CC(NC(=O)c2c(C)nc(CNc3n[nH]c4ccc(C(C)(C)C)cc34)n2C(C)C)C1 [Example 42, N-(1-acryloylazetidin-3-yl)-2-(((5-(tert-butyl)-1H-indazol-3-yl)amino)methyl)-1-isopropyl-4-methyl-1H-imidazole-5-carboxamide] | B (a binding rate of 60% or more and less than 80% is rated “B,”)
23 | [2H]C([2H])(Nc1n[nH]c2cc(Cl)c(C(C)(C)C)cc12)c1nc(C(F)F)c(C(=O)NC2CN(C(=O)C=C)C2)n1C(C)C [Example 36, N-(1-acryloylazetidin-3-yl)-2-(((5-(tert-butyl)-6-chloro-1H-indazol-3-yl)amino)methyl-d2)-4-(difluoromethyl)-1-isopropyl-1H-imidazole-5-carboxamide] | B (a binding rate of 60% or more and less than 80% is rated “B,”)
